From patent US11553713B2, “Polyalcohol, carbohydrate, nucleobase and nucleotide compositions and uses thereof” (Chunbo Zhang, priority 2015, dated 2023)

Assays:
female mosquitoes [1] = test: Efficacy by ingestion: feeder test in 6-liter cage, death rate of female mosquitoes; assay type: in vivo; conditions: for Death Rate / Death Rate within 24 hrs after treatment removed / Death Rate within 2 days after treatment removed / Death Rate within 3 days after treatment removed / Death Rate within 4 days after treatment removed: 10% sugar in CPDA, 24 hrs; for timing of death after ingestion (“delayed” death): after treatment was removed
Description: Female mosquitoes were used in the experiment because only female mosquitoes bite humans and animals and transmit infectious diseases.
(2R)-3-fluoropropane-1,2-diol (rFOH) was used as the active agent at various concentrations. A sugar feeder containing 10% sucrose, which is a regular mosquito feeder in a laboratory setting, was used as a regular food source in free choice studies. A free choice study allows the pests to select which feeder to feed on when given two or more choices.
In a two-choice test, a 6-liter cage was supplied with two feeders, one contained 5% rFOH and 10% sucrose in CPDA and the other one contained 10% sucrose without any rFOH or CPDA. 100 female mosquitoes were placed in the cage having the two feeders such that the mosquitoes chose freely which feeder to feed on. After 24 hours of feeding in the cage, over 80% of mosquitoes were dead. […] When the concentration of rFOH was reduced to 1% or 0.15%, its effectiveness remained the same. Over 80% of mosquitoes were dead due to 24 hours of feeding with rFOH.
Subsequent to 24 hours of feeding, rFOH feeder was removed from the cage and a regular sugar feeder (10% sucrose) was provided. In the next day, 5-20% of residual death was observed, indicating a delayed death after rFOH ingestion.
In a further study, mosquitoes were fasted for 24 hours before feeding to ensure that all mosquitoes have the capacity for food intake. […] Thus, fasting is not a cause of mosquito death during a series of experiments.
The experiments determined that 0.1% rFOH was sufficient to achieve 50% death (LD50) under various conditions. In one study, 100 mosquitoes were caged in a 6-liter space and fasted for 24 hours. Subsequently, the mosquitoes were fed on two feeders giving their free choices for 0.1% rFOH containing 10% sucrose in CPDA or 10% sucrose without rFOH for 24 hours, resulting in 43% death. In a parallel study in which the cage was supplied with a single feeder, the 0.1% rFOH feeder containing 10% sucrose in CPDA, which caused 44% of death after 24 hours of feeding.
Similar experiments as disclosed above were performed with various rFOH concentrations under various conditions. The rFOH composition contained 10% sugar in CPDA solution unless specified otherwise.
Similar experiments as disclosed above were performed on female mosquitoes to determine LD50. The rFOH composition contained 10% sugar in CPDA solution unless specified otherwise.
(§1) Similar experiments as disclosed above were performed on female mosquitoes using different active agents at various concentrations. The active agent composition contained 10% sugar in CPDA solution unless specified otherwise.

[2] = test system: Methicillin/oxacillin resistant Staphylococcus aureus (MRSA) strain (ATCC 43300); test: MIC test, broth microdilution (CLSI M07-A9); assay type: cell-based
Method: (§2) The effects of pesticides disclosed herein on various bacteria were tested by determining the minimal inhibitory concentration (MIC) of the pesticides. MIC of an antimicrobial agent is the lowest concentration of the antimicrobial agent that inhibits a given bacterial isolate from multiplying and producing visible growth in the test system. The MIC of rFOH and BrOH was determined in the laboratory by incubating a known quantity of bacteria with a series of dilutions of the active agents and comparing their effects with those of known antimicrobial agents. Table 6 lists the representative bacterial strains and the conditions in MIC tests. Antimicrobial tests of the active agents were conducted according to “Methods for Dilution Antimicrobial Susceptibility Tests for Bacteria That Grow Aerobically” by Clinical and Laboratory Standards Institute (CLSI) (CLSI document M07-A9, 2012). In the study, methicillin/oxacillin resistant Staphylococcus aureus (MRSA) strain (ATCC 43300) was routinely under screening with 4 ug/ml oxacillin. Escherishia coli DH5α was a nonpathogenic laboratory strain. […] When the DH5α/plasmid (DH5P) colony was used, the colony was maintained in the presence of 100 ug/ml ampicillin.
(§3) MIC tests were conducted in 96 well microtiter plates with a total volume of 150 ul broth in each well. The directly colony suspension method (CLSI document M07-A9, 2012) was applied to obtain MIC for antimicrobial tests of the active agents. After colonies were freshly incubated overnight, colonies were suspended in sterile water to adjust the inoculum to a turbidity equivalent to a 0.5 McFarland standard (corresponding to approximately 1.5×10^8 CFU/ml). Within 10 minutes, the inoculum was adjusted by dilution in broth to reach a final concentration of 5×10^5 CFU/ml. A series of various concentrations of the active agents were applied to determine the MIC. In the same microtiter plate, an internal standard formulated by a concentration series of standard antibiotic agent was incubated in parallels to allow for back-to-back comparison.

[3] = test system: Escherishia coli DH5α transformed with a pcDNA3 plasmid (DH5P); test: MIC test, broth microdilution (CLSI M07-A9); assay type: cell-based
Method: as §2, §3

Escherishia coli DH5α = test: MIC test, broth microdilution (CLSI M07-A9); assay type: cell-based
Method: as §2, §3

female mosquitoes [4] = test: Membrane feeding test, death rate of female mosquitoes; assay type: in vivo; conditions: active agent at 1%; 18 hrs fasting; membrane feeding for 1 hour and 45 minutes before sugar feeder provided
Method: as §1
This is because membrane feeding provides only a small space accessible to a limited number of mosquitoes for feeding.

Stability of FOH = assay type: physicochemical; conditions: normal temperature and pressure
Method: In some embodiments, 3-fluoropropane-1,2-diol (FOH) (R^1═R^2=R^3═R^5═H, n=2, m=0 in formula I) is exemplified as an active agent of the compositions disclosed herein. FOH has two enantiomeric isomers (2r)-3-fluoropropane-1,2-diol (rFOH) and (2s)-3-fluoropropane-1,2-diol (sFOH). FOH is a nonvolatile chemical having a boiling point of 205.4° C. at 760 mm Hg, a flash point of 87.2° C., and a density of 1.192 g/cm^3. FOH is stable under normal temperature and pressure. The chemical synthesis of FOH is known in the art (Dummel et al., J. Med. Chem. 12(2): 347 (1969)). The chemical structure of FOH, representing both rFOH and sFOH, is shown below: […]

[5] = active agent at 0.5%, 24 hrs fasting, sugar feeder not provided
[6] = active agent at 1.5%, 24 hrs fasting, sugar feeder not provided
[7] = active agent at 1%, 24 hrs fasting, sugar feeder not provided
[8] = Tryptic soy broth, 37° C. for 24 hrs, listed as BrOH
[9] = active agent at 0.5%, not fasted, sugar feeder provided for free choice
[10] = internal standard in the same microtiter plate

With `OCC1(CO)CCC1` [1,1-Bis(hydroxymethyl)cyclobutane] the “Death Rate” value (female mosquitoes [1]; [5]) was 50%.
For `OC1CCCCC1O` (stereo not drawn) [1,2-cyclohexanediol], the “Death Rate” value (female mosquitoes [1]; [5]) was 22%.
For `CC(C)(CO)CO` [2,2-Dimethyl-1,3-propanediol], the “Death Rate” value (female mosquitoes [1]; active agent at 0.5%, 24 hrs fasting, sugar feeder provided for free choice) was 10%.
With `CC(C)(O)C(C)(C)O` [2,3-Dimethylbutane-2,3-diol] the “Death Rate” value (female mosquitoes [1]; [6]) was 53%.
In the case of `NC(CO)CO` [2-Amino-1,3-propanediol], the “Death Rate” value (female mosquitoes [1]; [5]) was 16%.
With `Nc1nc(F)nc2nc[nH]c12` [2-Fluoroadenine] the “Death Rate” value (female mosquitoes [1]; active agent at 0.2%, 24 hrs fasting, sugar feeder provided for free choice) was 30%.
With `Nc1nc(F)nc2c1ncn2[C@@H]1O[C@H](CO)[C@@H](O)[C@H]1O` [2-Fluoroadenosine] the “Death Rate within 24 hrs after treatment removed” value (female mosquitoes [1]; [7]) was 22% within, the “Death Rate within 2 days after treatment removed” value (female mosquitoes [1]; [7]) was “removed, 47%” and the “Death Rate within 3 days after treatment removed” value (female mosquitoes [1]; [7]) was “removed, 64%”. The “Death Rate within 4 days after treatment removed” value (female mosquitoes [1]; [7]) was 75-80% within, the “Death Rate within 4 days after treatment removed” value (female mosquitoes [1]; active agent at 1%, 24 hrs fasting, sugar feeder not provided, listed as 2-fluoroadenosine) was 75-80% and the “timing of death after ingestion (“delayed” death)” value (“timing of death after ingestion” for short) (female mosquitoes [1]) was “delayed”.
For `CC(CO)CO` [2-Methyl-1,3-propanediol], the “Death Rate” value (female mosquitoes [1]; [5]) was 12%.
For `OCC(CO)c1ccccc1` [2-Penyl-1,3-propanediol], the “Death Rate” value (female mosquitoes [1]; [6]) was 61%.
With `O=c1[nH]c(=O)n([C@H]2C[C@H](O)[C@@H](CO)O2)cc1F` [2′-Deoxy-5-fluorouridine] the “Death Rate” value (female mosquitoes [1]; active agent at 2%, 24 hrs fasting, sugar feeder not provided) was 24%.
`OCC(O)CBr` (stereo not drawn) [3-Bromopropane-1,2-diol] showed an MIC ([2]; Mueller Hinton broth with 2% NaCl and 50 ug/ml CaCl2, 35° C. for 24 hrs, listed as BrOH) of 2.5%, an MIC [3, 8] of 0.2% and an MIC (Escherishia coli DH5α; [8]) of 0.025%. For the same compound, the “Death Rate” value (female mosquitoes [1]; active agent at 0.15%, 24 hrs fasting, sugar feeder provided for free choice, death found for a week after treatment was removed) was 30-52%, the “Death Rate” value (female mosquitoes [1]; active agent at 0.2%, 24 hrs fasting, sugar feeder not provided, death found for a week after treatment was removed) was over 85% death and the “timing of death after ingestion” value (female mosquitoes [1]) was “Delayed”.
With `OCC(O)CCl` (stereo not drawn) [3-Chloro-1,2-propanediol] the “Death Rate” value (female mosquitoes [1]; active agent at 0.15%, 24 hrs fasting, sugar feeder not provided) was over 85%.
In the case of `OC[C@H]1O[C@@H](O)[C@H](O)[C@@H](O)[C@@H]1F` [4-Deoxy-4-fluoro-β-D-glucopyranose], the “Death Rate in 2 hours” value (female mosquitoes [4]) was 10% in 2, the “Death Rate in 24 hours” value (female mosquitoes [4]) was “hours, 17%” and the “Death Rate in the first hour” value (female mosquitoes [4]) was 2% in the.
In the case of `C[C@@H](Cl)C(=O)O` [(R)-(+)-2-Chloropropionic acid], the “Death Rate” value (female mosquitoes [1]; [5]) was 10%.
For `OCC(O)CF` (stereo not drawn) [FOH, 3-fluoropropane-1,2-diol], the stability (Stability of FOH) was “stable”.
With `Nc1ccn([C@@H]2O[C@H](CO)[C@@H](O)C2(F)F)c(=O)n1` [Gemcitabine, reference compound] the “Death Rate within 24 hrs after treatment removed” value (female mosquitoes [1]; [9]) was 3% within, the “Death Rate within 2 days after treatment removed” value (female mosquitoes [1]; [9]) was “removed, 36%” and the “Death Rate within 3 days after treatment removed” value (female mosquitoes [1]; [9]) was 66%.
For `CC1(C)S[C@@H]2[C@H](NC(=O)[C@H](N)c3ccccc3)C(=O)N2[C@H]1C(=O)O` [ampicillin, reference compound], the “Comparable Effectiveness (standard antibiotic concentration as effective as 0.4% rFOH)” value [3, 10] was 240 µg/mL and the “Comparable Effectiveness (standard antibiotic concentration as effective as 0.4% rFOH)” value (Escherishia coli DH5α; [10]) was 19 µg/mL.
In the case of `CO[C@@]1(NC(=O)Cc2cccs2)C(=O)N2C(C(=O)O)=C(COC(N)=O)CS[C@@H]21` [cefoxitin, reference compound], the “Comparable Effectiveness (standard antibiotic concentration as effective as 0.4% rFOH)” value [2, 10] was 48 µg/mL.
With `OC[C@H](O)CF` [sFOH, (2s)-3-fluoropropane-1,2-diol] the “Death Rate” value (female mosquitoes [1]; active agent at 0.3%, 24 hrs fasting, sugar feeder not provided, death found for a week after treatment was removed) was 42-68%, the “Death Rate” value (female mosquitoes [1]; active agent at 0.5%, 24 hrs fasting, sugar feeder not provided, death found for a week after treatment was removed) was over 85% death and the “timing of death after ingestion” value (female mosquitoes [1]) was “Delayed”.
